Measurements: patent publication US20080287445A1, “Prokineticin 2 receptor antagonists” (priority 2005, published 2008)
Several values for one entry are separate records, joined by “and”; a condition that tells them apart may be missing. Identical values can stand only once.

What was measured:
[1] = target: T1, GPR73 (prokineticin 1 receptor) (Homo sapiens, UniProt Q8TCW9); assay: PK1 functional assay: Ca2+ mobilization screening for PK1 antagonists on the FLIPR; format: cell-based; conditions: HEK 293 GPR73 cells, multiple values = multiple testing; for inhibition at 10 µM: HEK293, 10 μM compound, read-out: Ca^2+ Mobilization % Inh @ 10 μM; for IC50: PK1 ligand preparation at its EC50, read-out: Ca^2+ Mobilization IC50
T1 construct: expressed in transfected cells; host or cells: HEK 293
Method in brief: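 HEK293 cells expressing human GPR73 were loaded with Calcium Plus dye, then on FLIPR given compound for 4 min 15 s before PK1 ligand at its predetermined EC50. Baseline-subtracted fluorescence over 1 min 45 s gave percent inhibition versus maximal signal; IC50 fitted.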

[2] = system: Cholera toxin evoked increase in baseline Isc; set-up: species or system rat
[3] = system: ileum mucosal tissues from PK1 receptor knock-out mice; assay: PK1-evoked Isc in ileum mucosal tissues from PK1 receptor knock-out mice; conditions: exogenous PK1 peptide

T1 sequence (Q8TCW9 whole entry, species assumed): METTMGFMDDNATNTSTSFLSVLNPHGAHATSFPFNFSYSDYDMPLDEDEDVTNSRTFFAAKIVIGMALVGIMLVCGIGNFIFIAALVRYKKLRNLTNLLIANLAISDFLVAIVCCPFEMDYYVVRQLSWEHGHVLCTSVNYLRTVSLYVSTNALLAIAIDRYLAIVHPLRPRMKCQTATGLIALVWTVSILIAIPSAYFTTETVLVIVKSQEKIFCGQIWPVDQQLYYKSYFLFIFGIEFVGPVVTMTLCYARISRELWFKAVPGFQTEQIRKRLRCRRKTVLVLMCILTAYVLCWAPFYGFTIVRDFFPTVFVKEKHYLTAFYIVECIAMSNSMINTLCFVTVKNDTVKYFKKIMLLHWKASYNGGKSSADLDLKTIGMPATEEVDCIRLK

Molecule | Ca^2+ Mobilization % Inh @ 10 μM ([1]; 10 μM compound, 10 µM) | inhibition at 10 µM [1] [%] | IC50 [1] | suppression of Cholera toxin-evoked increase in Isc (in words) [2] | suppression of sustained increase in baseline Isc evoked by Cholera toxin [2] | change in Isc compared to wild-type littermates [3]
COc1ccc(Cn2c(NCc3cccnc3N)nc(=O)n(Cc3ccc(OC)cc3)c2=O)cc1 [Cpd 3, 6-[(2-Amino-pyridin-3-ylmethyl)-amino]-1,3-bis-(4-methoxy-benzyl)-1H-[1,3,5]triazine-2,4-dione] | 94% and 100% | 83 | 34 nM and 61 nM and 82 nM | suppresses | 50-60% | –
Cc1cc(-c2ccc(F)cc2)nc(N)c1CNc1nc(=O)n(Cc2ccc3c(c2)CCO3)c(=O)n1Cc1ccc(OC(F)F)cc1 [Cpd 262] | – | 0.89 | > 10000 nM | – | – | –
COc1ccc(Cn2c(NCc3c(N)nc(C)c(C)c3C)nc(=O)n(Cc3ccc(OC)cc3)c2=O)cc1 [Cpd 263] | – | 99 | 94 nM | – | – | –
COc1ccc(Cn2c(NCc3c(N)nc4c(c3C)CCC4)nc(=O)n(Cc3ccc(OC)cc3)c2=O)cc1 [Cpd 264] | – | 95 | 74 nM | – | – | –
CCCc1cc(CCC)c(CNc2nc(=O)n(Cc3ccc(OC)cc3)c(=O)n2Cc2ccc(OC)cc2)c(N)n1 [Cpd 265] | – | 95 | 441 nM | – | – | –
COc1ccc(Cn2c(NCc3cccc(C)n3)nc(=O)n(Cc3ccc(OC)cc3)c2=O)cc1 [Cpd 267] | – | 10 | > 10000 nM | – | – | –
Nc1cc(Cn2c(=O)nc(NCc3cccnc3N)n(Cc3ccc(OC(F)F)cc3)c2=O)ccc1O [Cpd 268] | – | 24 | > 10000 nM | – | – | –
Nc1cc(Cn2c(=O)nc(NCc3cccnc3N)n(Cc3ccc4c(c3)CCO4)c2=O)ccc1O [Cpd 269] | – | 22 | > 10000 nM | – | – | –
Cc1cc(COCc2ccccc2)c(CNc2nc(=O)n(Cc3ccc4c(c3)CCO4)c(=O)n2Cc2ccc(OC(F)F)cc2)c(N)n1 [Cpd 270, 6-[(2-Amino-4-benzyloxymethyl-6-methyl-pyridin-3-ylmethyl)-amino]-1-(4-difluoromethoxy-benzyl)-3-(2,3-dihydro-benzofuran-5-ylmethyl)-1H-[1,3,5]triazine-2,4-dione] | – | 12 | > 10000 nM | – | – | –
PK1: Recombinant human prokineticin-1 expressed in HEK 293 cells, FLAG epitope cleaved; preparation holds full-length and a four C-terminal residue truncated product (protein, UniProt P58294 20-105, looked up, mixture with C-terminally truncated product) Prokineticin-1: AVITGACERDVQCGAGTCCAISLWLRGLRMCTPLGREGEECHPGSHKVPFFRKRKHHTCPCLPNLLCSRFPDGRYRCSMDLKNINF | – | – | – | – | – | failed to elicit a significant change in Isc
